We go through 19 molecules from US20240043439A1, “COMPOUNDS AS C5AR INHIBITORS” (Kira Pharmaceuticals (Suzhou) Ltd., priority 2020, published 2024).

Sequence of C5aR (P21730 whole entry): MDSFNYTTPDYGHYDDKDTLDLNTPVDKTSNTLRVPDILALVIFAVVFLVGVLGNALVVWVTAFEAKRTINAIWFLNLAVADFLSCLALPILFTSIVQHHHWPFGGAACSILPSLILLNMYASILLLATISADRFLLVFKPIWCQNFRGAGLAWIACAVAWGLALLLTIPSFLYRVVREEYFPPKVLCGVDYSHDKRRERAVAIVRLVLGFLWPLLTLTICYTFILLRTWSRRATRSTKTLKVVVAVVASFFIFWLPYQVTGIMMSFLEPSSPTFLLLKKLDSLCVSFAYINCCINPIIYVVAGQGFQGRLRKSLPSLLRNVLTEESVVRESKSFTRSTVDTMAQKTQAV

The first experiment concerns the target C5aR (Homo sapiens (Human), UniProt P21730). Briefly: Calcium mobilization (U937/C5aR or HEK293/C5aR cells, FLIPR). The experiment is classed as cell-based. To be noted: agonist human C5a at EC80, FLIPR. The protocol: U937/C5aR cells or HEK293/C5aR cells were washed by PBS and suspended in growth media at the density of 1×10^6 cells/ml. […] to the 384-well plate and culture for overnight. Transfer 250 nl compound solution to the cell plate using Echo, incubate for 60 min. Cells were added with Fluo-4 Direct™ dye and incubate for 50 min at 37° C. 5% CO2 and 10 m at room temperature. Place the cell plate into […] (Molecular Devices). Transfer 10 μl of 5-fold EC80 concentrations of agonist human C5a to the cell plates.
A general note: A change in cytosolic calcium serves as a functional read-out for many receptors and channels.
`Cc1ccc(NC(=O)[C@H]2CCCN[C@H]2c2ccc(N(c3ncnc4cccnc34)C3CCCC3)cc2)cc1C(F)(F)F` [Compound 176, (2R,3S)-2-(4-(cyclopentyl(pyrido[3,2-d]pyrimidin-4-yl)amino)phenyl)-N-(4-methyl-3-(trifluoromethyl)phenyl)piperidine-3-carboxamide]: the IC50 was 2 to 10 µM. As to `Cc1ccc(NC(=O)[C@H]2CCCN[C@H]2c2ccc(N(c3ncnc4ccccc34)C3CCCC3)cc2)cc1C(F)(F)F` [Compound 177, (2R,3S)-2-(4-(cyclopentyl(quinazolin-4-yl)amino)phenyl)-N-(4-methyl-3-(trifluoromethyl)phenyl)piperidine-3-carboxamide], the IC50 was 2 to 10 µM. On to `Cc1ccc(NC(=O)[C@H]2CCCN[C@H]2c2ccc(N(c3ncnc4cnccc34)C3CCCC3)cc2)cc1C(F)(F)F` [Compound 178, (2R,3S)-2-(4-(cyclopentyl(pyrido[3,4-d]pyrimidin-4-yl)amino)phenyl)-N-(4-methyl-3-(trifluoromethyl)phenyl)piperidine-3-carboxamide], for which the IC50 fell in the range of 2 to 10 µM.

In the case of `Cc1ccc(NC(=O)[C@H]2CCCN[C@H]2c2ccc(N(c3nncc4ccccc34)C3CCCC3)cc2)cc1C(F)(F)F` [Compound 179, (2R,3S)-2-(4-(cyclopentyl(phthalazin-1-yl)amino)phenyl)-N-(4-methyl-3-(trifluoromethyl)phenyl)piperidine-3-carboxamide], the IC50 fell in the range of 2 to 10 µM. The same measure, in the same setting: with `Cc1ccc(CNC(=O)[C@H]2C[C@H]3CCC[C@H]3N(C(=O)c3c(C)cccc3F)[C@H]2c2ccc(NC3CCCC3)cc2)cc1C(F)(F)F` [Compound 185, (2R,3S,4aR,7aR)-2-(4-(cyclopentylamino)phenyl)-1-(2-fluoro-6-methylbenzoyl)-N-(4-methyl-3-(trifluoromethyl)benzyl)octahydro-1H-cyclopenta[b]pyridine-3-carboxamide] the figure was 2 to 10 µM. The same measure, in the same setting: under “(cis-3-(6-chloro-1,2,3,4-tetrahydroisoquinoline-2-carbonyl)-2-(4-(cyclopentylamino)phenyl)octahydro-1H-cyclopenta[b]pyridin-1-yl)(2-fluoro-6-methylphenyl)methanone [Compound 72]” stands 2 to 10 µM.

The target in a further experiment is human C5a receptor (C5aR) (Homo sapiens (Human), UniProt P21730). Briefly: Inhibition of C5a-C5aR binding (biotinylated human C5a, U937/C5aR cells, FACS).
Sequence of human C5a receptor (C5aR) (P21730 whole entry): as above
Conditions: not given
As to the method: U937 cells were originally obtained from the American Type Culture Collection (ATCC) and transfected with human C5a receptor (C5aR). U937/C5aR cells were cultured at 37° C., 5% CO2 in RPMI1640 (Gibco) supplemented with 10% FBS (Gibco) and 350 µg/ml Geneticin (Gibco) and passaged every 3 days to maintain the density range from […] to 2×10^6 cells/ml.
Human C5a biotinylation was performed according to the procedure provided by manufacturer (Thermo Scientific, A39257). 10 mM solution of Sulfo-NHS-LC-Biotin was prepared by adding 180μl ultrapure H2O to the 1 mg vial immediately. 12 μl 10 mM biotin reagent was added to […] human C5a solution, gently pipetted for 3 seconds, and incubated on ice for 2 hours. Amicon ultra-0.5 centrifuge filter device (Millipore, UFC5003BK) was pre-rinsed with Milli-Q H2O, centrifuged at 14000 g for 5 min immediately before use. Up to […] sample (diluted by PBS) was added to the device and capped. The device was spinned at 14000 g for approximately 5 min. 250 μl PBS was added to the filter device, spinned at 14000 g for 5 min, and repeatedly washed 6 times. The filter device was separated from the microcentrifuge tube and placed upside down in a clean microcentrifuge tube, spinned for 2 min at 1000 g to transfer the concentrated sample from the device to the tube.
U937/C5aR cells were collected and washed twice by PBS, cells were suspended in PBS+0.1% BSA buffer at the density of 3×10^6 cells/ml. 100 μl cell suspension was added to a 96 well microplate. 50 μl compound diluted in assay buffer and 50 μl biotinylated ligand human C5a (30 nM) were added to corresponding wells in order and the plate was incubated on ice for 120 min and then centrifuged at 1000 rpm for 3-5 min at 4° C. Supernatant was removed and cells were washed by pre-cold PBS twice. 100 μl FITC conjugated streptavidin was added to cells, incubated on ice for another 30 min, and then centrifuged at 1000 rpm for 3-5 min at 4° C. Supernatant was removed and cells were washed by pre-cold PBS twice. 150 μl PBS was added to suspend the cells and signals were detected by FACS (Beckman, Cytoflex).
Consider `Cc1cccc(F)c1C(=O)N1C2COC[C@@H]2C[C@H](C(=O)Nc2ccc3c(cnn3C)c2)[C@@H]1c1ccc(NC2CCOCC2)cc1` (relative stereo) [Compound 134, cis-1-(2-fluoro-6-methylbenzoyl)-N-(1-methyl-1H-indazol-5-yl)-2-(4-((tetrahydro-2H-pyran-4-yl)amino)phenyl)octahydrofuro[3,4-b]pyridine-3-carboxamide], for which the IC50 was 2 to 5 µM. On the same count and under the same terms, under `Cc1ccc(NC(=O)C2C[C@@H]3CCC[C@@H]3N(C(=O)c3c(C)cccc3F)C2c2ccc(NC3CCCC3)cc2)cc1C(F)(F)F` (relative stereo) [Compound 155, cis-2-(4-(cyclopentylamino)phenyl)-1-(2-fluoro-6-methylbenzoyl)-N-(4-methyl-3-(trifluoromethyl)phenyl)octahydro-1H-cyclopenta[b]pyridine-3-carboxamide] stands 0.5 to 2 µM; under `Cc1ccc(NC(=O)C2CC(O)CN(C(=O)c3c(C)cccc3F)C2c2ccc(NC3CCCC3)cc2)cc1C(F)(F)F` (stereo not shown) [Compound 42, 2-(4-(cyclopentylamino)phenyl)-1-(2-fluoro-6-methylbenzoyl)-5-hydroxy-N-(4-methyl-3-(trifluoromethyl)phenyl)piperidine-3-carboxamide], less than 0.05 µM; under `Cc1cccc(F)c1C(=O)N1[C@@H]2CCC[C@@H]2C[C@H](C(=O)Nc2ccc3c(cnn3C3COC3)c2)[C@@H]1c1ccc(NC2CCCC2)cc1` [Compound 83, (2R,3S,4aR,7aR)-2-(4-(cyclopentylamino)phenyl)-1-(2-fluoro-6-methylbenzoyl)-N-(1-(oxetan-3-yl)-1H-indazol-5-yl)octahydro-1H-cyclopenta[b]pyridine-3-carboxamide], 2 to 5 µM. On the same count and under the same terms, with `Cc1cccc(F)c1C(=O)N1[C@@H]2CCC[C@@H]2C[C@H](C(=O)Nc2ccc3[nH]ncc3c2)[C@@H]1c1ccc(NC2CCCC2)cc1` [Compound 84, (2R,3S,4aR,7aR)-2-(4-(cyclopentylamino)phenyl)-1-(2-fluoro-6-methylbenzoyl)-N-(1H-indazol-5-yl)octahydro-1H-cyclopenta[b]pyridine-3-carboxamide] the figure was less than 0.05 µM; with `Cc1cccc(F)c1C(=O)N1[C@@H]2CCC[C@@H]2C[C@H](C(=O)Nc2ccc3c(cnn3Cc3ccccn3)c2)[C@@H]1c1ccc(NC2CCOCC2)cc1` [Compound 92, (2R,3S,4aR,7aR)-1-(2-fluoro-6-methylbenzoyl)-N-(1-(pyridin-2-ylmethyl)-1H-indazol-5-yl)-2-(4-((tetrahydro-2H-pyran-4-yl)amino)phenyl)octahydro-1H-cyclopenta[b]pyridine-3-carboxamide], 2 to 5 µM; with `Cc1cccc(F)c1C(=O)N1[C@@H]2CCC[C@@H]2C[C@H](C(=O)Nc2ccc3ncccc3c2)[C@@H]1c1ccc(NC2CCOCC2)cc1` [Compound 95, (2R,3S,4aR,7aR)-1-(2-fluoro-6-methylbenzoyl)-N-(quinolin-6-yl)-2-(4-((tetrahydro-2H-pyran-4-yl)amino)phenyl)octahydro-1H-cyclopenta[b]pyridine-3-carboxamide], 0.5 to 2 µM.

`Cc1cccc(F)c1C(=O)N1[C@@H]2CCC[C@@H]2C[C@H](C(=O)Nc2ccc3nn(C)cc3c2)[C@@H]1c1ccc(NC2CCOCC2)cc1` [Compound 97, (2R,3S,4aR,7aR)-1-(2-fluoro-6-methylbenzoyl)-N-(2-methyl-2H-indazol-5-yl)-2-(4-((tetrahydro-2H-pyran-4-yl)amino)phenyl)octahydro-1H-cyclopenta[b]pyridine-3-carboxamide] came in with an IC50 of 0.5 to 2 µM. Still for that read-out and setting: under `Cc1cccc(F)c1C(=O)N1[C@@H]2CCC[C@@H]2C[C@H](C(=O)Nc2ccc3c(cnn3C3COC3)c2)[C@@H]1c1ccc(NC2CCOCC2)cc1` [Compound 99, (2R,3S,4aR,7aR)-1-(2-fluoro-6-methylbenzoyl)-N-(1-(oxetan-3-yl)-1H-indazol-5-yl)-2-(4-((tetrahydro-2H-pyran-4-yl)amino)phenyl)octahydro-1H-cyclopenta[b]pyridine-3-carboxamide] stands 2 to 5 µM; under `Cc1cccc(F)c1C(=O)N1[C@@H]2CCC[C@@H]2C[C@H](C(=O)Nc2ccc3c(cnn3CCO)c2)[C@@H]1c1ccc(NC2CCOCC2)cc1` [Compound 102, (2R,3S,4aR,7aR)-1-(2-fluoro-6-methylbenzoyl)-N-(1-(2-hydroxyethyl)-1H-indazol-5-yl)-2-(4-((tetrahydro-2H-pyran-4-yl)amino)phenyl)octahydro-1H-cyclopenta[b]pyridine-3-carboxamide], 2 to 5 µM; under `Cc1cccc(F)c1C(=O)N1[C@@H]2CCC[C@@H]2C[C@H](C(=O)Nc2ccc3c(cnn3CCN(C)C)c2)[C@@H]1c1ccc(NC2CCOCC2)cc1` [Compound 103, (2R,3S,4aR,7aR)-N-(1-(2-(dimethylamino)ethyl)-1H-indazol-5-yl)-1-(2-fluoro-6-methylbenzoyl)-2-(4-((tetrahydro-2H-pyran-4-yl)amino)phenyl)octahydro-1H-cyclopenta[b]pyridine-3-carboxamide], 2 to 5 µM.

As for `Cc1cccc(F)c1C(=O)N1[C@@H]2CCC[C@@H]2C[C@H](C(=O)Nc2ccc3nn(CCO)cc3c2)[C@@H]1c1ccc(NC2CCOCC2)cc1` [Compound 104, (2R,3S,4aR,7aR)-1-(2-fluoro-6-methylbenzoyl)-N-(2-(2-hydroxyethyl)-2H-indazol-5-yl)-2-(4-((tetrahydro-2H-pyran-4-yl)amino)phenyl)octahydro-1H-cyclopenta[b]pyridine-3-carboxamide], the IC50 is 2 to 5 µM. On the same count and under the same terms, with `Cc1cccc(F)c1C(=O)N1[C@@H]2CCC[C@@H]2C[C@H](C(=O)Nc2ccc3nn(CCN(C)C)cc3c2)[C@@H]1c1ccc(NC2CCOCC2)cc1` [Compound 105, (2R,3S,4aR,7aR)-N-(2-(2-(dimethylamino)ethyl)-2H-indazol-5-yl)-1-(2-fluoro-6-methylbenzoyl)-2-(4-((tetrahydro-2H-pyran-4-yl)amino)phenyl)octahydro-1H-cyclopenta[b]pyridine-3-carboxamide] the figure was 2 to 5 µM.

As a reminder, the IC50 is the concentration that inhibits the measured activity by half.
